For experiment [1], the target named is Coagulation factor X (Homo sapiens, UniProt P00742). In words: Binding affinity to f10a.
Experiment [2] concerns the target T1, Coagulation factor VII (Homo sapiens, UniProt P08709).
T1 sequence (P08709 whole entry): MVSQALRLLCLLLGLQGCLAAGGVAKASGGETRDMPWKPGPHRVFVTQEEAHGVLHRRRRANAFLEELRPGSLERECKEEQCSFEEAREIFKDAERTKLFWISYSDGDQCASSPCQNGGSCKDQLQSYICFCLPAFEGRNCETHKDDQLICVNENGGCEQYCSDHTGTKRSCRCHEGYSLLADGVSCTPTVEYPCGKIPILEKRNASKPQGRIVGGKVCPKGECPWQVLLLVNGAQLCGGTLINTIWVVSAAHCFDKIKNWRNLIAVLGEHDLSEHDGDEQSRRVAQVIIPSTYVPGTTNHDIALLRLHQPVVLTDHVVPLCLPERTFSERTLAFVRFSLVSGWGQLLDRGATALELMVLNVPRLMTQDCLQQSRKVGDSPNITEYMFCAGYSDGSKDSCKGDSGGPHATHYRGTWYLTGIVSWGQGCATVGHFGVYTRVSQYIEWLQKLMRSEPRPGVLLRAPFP
In words: Binding affinity to f7a.

In experiment [3] the target is Trypsin (Homo sapiens, UniProt P07477+P07478+P35030). In words: Binding affinity to trypsin. In kind it is protein assay.
Experiment [4] deals with Prothrombin (Homo sapiens, UniProt P00734). In words: Binding affinity to thrombin.
For experiment [5], the species on record is Homo sapiens. In words: Selectivity for f7a over trypsin.

A value given as a limit tells only on which side of the number the result lay.

For orientation: Ki means a measure of affinity in units of concentration, obtained from inhibition or displacement.

Sequence of Coagulation factor X (P00742 41-179 limits assumed): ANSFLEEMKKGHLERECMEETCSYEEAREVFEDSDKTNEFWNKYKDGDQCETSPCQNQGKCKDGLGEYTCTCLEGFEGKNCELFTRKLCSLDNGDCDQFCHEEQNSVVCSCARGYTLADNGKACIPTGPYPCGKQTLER
Sequence of Coagulation factor X (P00742 235-488 limits assumed): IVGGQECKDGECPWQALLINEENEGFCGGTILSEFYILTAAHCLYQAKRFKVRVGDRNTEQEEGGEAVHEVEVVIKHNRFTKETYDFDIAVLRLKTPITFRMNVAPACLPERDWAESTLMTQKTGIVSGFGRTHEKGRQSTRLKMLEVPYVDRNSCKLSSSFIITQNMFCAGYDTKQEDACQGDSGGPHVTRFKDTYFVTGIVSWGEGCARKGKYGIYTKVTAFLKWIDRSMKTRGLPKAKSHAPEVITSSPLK

For the compound `Nc1ccc2[nH]c(-c3cc(CC(=O)O)cc(-c4cccc([N+](=O)[O-])c4)c3O)nc2n1`, the inhibition constant (Ki) in experiment [1] is more than 150 µM; in experiment [2], 39 µM; in experiment [3], more than 150 µM; in experiment [4] it was more than 150 µM.
On to `Nc1ccc2[nH]c(-c3cc(CC(=O)O)cc(-c4cccc([N+](=O)[O-])c4)c3O)cc2n1`, for which the results for the Ki in experiment [1], in experiment [3] and in experiment [4] were 3.5 µM, 120 µM and 44 µM, respectively. Also, the Selectivity ratio in experiment [5] stood at 400.
Take `Nc1ccc2[nH]c(-c3cc(CC(=O)O)cc(-c4ccccc4)c3O)cc2n1`: the Selectivity ratio in experiment [5] came out at 67. In experiment [2], this compound showed a Ki of 2.4 µM.
Regarding `N=C(N)c1ccc2[nH]c(-c3cc(CC(=O)O)cc(-c4cccc([N+](=O)[O-])c4)c3O)nc2c1`, the Ki in experiment [1] was 0.32 µM; in experiment [3], 11 µM; in experiment [4], more than 150 µM.
Consider `Nc1ccc2[nH]c(-c3cc(CC(=O)O)cc(-c4cccc(O)c4)c3O)cc2n1`, for which the Selectivity ratio in experiment [5] is 84. This compound also came in with a Ki in experiment [2] of 2.5 µM.
On to `O=C(O)Cc1cc(-c2cccc([N+](=O)[O-])c2)c(O)c(-c2nc3ccccc3[nH]2)c1`, for which the Ki in experiment [1] is more than 150 µM; in experiment [2] it was 11 µM; in experiment [3], more than 150 µM; in experiment [4] it was more than 150 µM.
On to `NC(=O)Nc1cccc(-c2cc(CC(=O)O)cc(-c3cc4[nH]c(N)ccc-4n3)c2O)c1`, for which the Selectivity ratio in experiment [5] is more than 13. This compound also returned a Ki in experiment [2] of 12 µM.
As for `N=C(N)c1ccc2[nH]c(-c3cc(CC(=O)O)cc(-c4cccc([N+](=O)[O-])c4)c3O)cc2c1`, the inhibition constant (Ki) in experiment [1] stood at 0.05 µM; in experiment [2] it was 0.004 µM; in experiment [3] it was 0.4 µM; in experiment [4] it was 2.9 µM.
With `Nc1ccc2[nH]c(-c3cc(CC(=O)O)cc(-c4cccc(CNC(=O)Nc5ccccc5)c4)c3O)cc2n1`, in experiment [5], the Selectivity ratio was more than 7000. Besides, the affinity in experiment [2], expressed as Ki, was 0.02 µM.
On the same counts, the results for `CS(=O)(=O)c1cccc(-c2cc(CC(=O)O)cc(-c3cc4[nH]c(N)ccc-4n3)c2O)c1` are 16 and 7.4 µM.
For `CN(C)CCNC(=O)NCc1cccc(-c2cc(CC(=O)O)cc(-c3cc4[nH]c(N)ccc-4n3)c2O)c1` the same measures were more than 100 and 1.4 µM.
